The record followed here is patent US20230310414A1.

One data set deals with SARS-CoV-2. The experiment in a line: cell viability (CPE) assay, VERO-E6 cells enriched for ACE-2 infected with SARS-CoV-2, CellTiter-Glo. The format is cell-based. As to conditions: for IC50: VERO-E6 cells enriched for ACE-2 plus SARS-CoV-2; for EC50: CPE assay.
The nature of data set [1]: toxicity assay, VERO-E6 cells enriched for ACE-2 in the absence of virus, CellTiter-Glo. To be noted: African green monkey, VERO-E6 cells enriched for ACE-2 receptor, no virus.
The subject of another data set is VERO-E6 cells. Described as above. To be noted: compound alone.
In data set [2] the test system is IRAK1, NF-κB, MAPKs, IRAK4 (MyD88). The experiment in a line: MyD88 downstream signalling in human macrophages. In kind it is cell-based.
Where [3] appears, read: Severe acute respiratory syndrome coronavirus 2, Vero C1008, positive controls, read-out: IC50 (μM), In Vitro Anti-SARS-CoV-2 Activity.
The mark [4] stands for this setting: human macrophages, through interaction with MyD88.

Like-named read-outs stand apart in the source and are kept apart here.

Take `CCN(CCO)CCCC(C)Nc1ccnc2cc(Cl)ccc12` (centres unmarked) [Hydroxychloroquine, hydroxychloroquine, reference compound]: the IC50 (as a rule, the midpoint of a concentration-inhibition curve) with SARS-CoV-2 (setting [3]) was found to be 3.53 µM. Further, the CC50 (in general, the concentration that lowers cell viability or growth by half) in data set [1] is greater than 30 µM.
As to “(14S,27S)-22,33-dimethoxy-13,28-dimethyl-2,5,7,20-tetraoxa-13,28-diazaoctacyclo[25.6.2.2^16,19.1^3,10.1^21,25.0^4,8.0^31,35.0^14,39]nonatri-aconta-1(33),3(39),4(8),9,16(38),17,19(37),21,23,25(36),31,34-dodecaene [cepharanthine]”, the EC50 (as a rule, the concentration at which the effect is half-maximal) in the data set on SARS-CoV-2 (compound alone) stood at 510 nM. In addition, in the data set with SARS-CoV-2 (compound alone, read-out: IC50), the IC50 was 0.51 µM. Besides, the CC50 is 7.22 µM in the data set on VERO-E6 cells (VERO-E6 cells enriched for ACE-2, absence of virus) and 7.22 µM with VERO-E6 cells.
In the data set on SARS-CoV-2 (Severe acute respiratory syndrome coronavirus 2, Vero C1008, compound alone), `COc1ccc2cc1Oc1ccc(cc1)C[C@H]1c3cc(c(OC)cc3CCN1C)Oc1c(OC)c(OC)cc3c1[C@H](C2)N(C)CC3` [tetrandrine, (1S,14S)-9,20,21,25-tetramethoxy-15,30-dimethyl-7,23-dioxa-15,30-diazaheptacyclo[22.6.2.2^3,6.1^8,12.1^14,18.0^27,31.0^22,33]hexatriaconta-3(36),4,6(35),8,10,12(34),18,20,22(33),24,26,31-dodecaene] came in with an EC50 of 1250 nM. Moreover, in the data set with SARS-CoV-2 (compound alone), the “SI (selectivity index; CC50/EC50)” value is listed as “SI: 5.02”. In addition, in data set [1], it took 6.28 µM to reach half-maximal cytotoxicity (CC50).
Turning to `CCOC(=O)[C@H]1O[C@@H]1C(=O)N[C@@H](CC(C)C)C(=O)NCCC(C)C` [E64d (aloxistatin), aloxistatin, reference compound], in the data set with SARS-CoV-2 (setting [3]), the IC50 came out at 7.48 µM. Further, in data set [1], the CC50 was greater than 30 µM.
For `CCN(CC)CCCC(C)Nc1ccnc2cc(Cl)ccc12` (centres unmarked) [Chloroquine, chloroquine, reference compound], in the data set on SARS-CoV-2 (setting [3]), the IC50 came to 3.78 µM. The CC50 in data set [1] is greater than 30 µM.
The compound `CCC(CC)COC(=O)[C@H](C)N[P@](=O)(OC[C@H]1O[C@@](C#N)(c2ccc3c(N)ncnn23)[C@H](O)[C@@H]1O)Oc1ccccc1` [Remdesivir, remdesivir, reference compound] yielded a CC50 in data set [1] greater than 30 µM.
Turning to `O.O=C(OC[C@H]1O[C@@H](OC(=O)c2cc(O)c(O)c(O)c2)[C@H](OC(=O)c2cc(O)c(O)c(O)c2)[C@@H](OC(=O)c2cc(O)c(O)c(O)c2)[C@@H]1OC(=O)c1cc(O)c(O)c(O)c1)c1cc(O)c(O)c(O)c1`, the “NF-κB translocation into the nucleus” value in data set [2] is “inhibited”. Further, in data set [2] (setting [4]), the “activation of IRAK1, NF-κB, and MAPKs” value is “potently reduced”; the “expression of IRAK4” value is “increasing expression”.
